Organism: Rattus norvegicus
Assay: Open TG-GATES - Regimen: Daily Repeat
Format: toxicity, organism-based, Sprague-Dawley
Design: regimen Daily Repeat, gender Male, age 6 weeks
Conditions: in vivo, po, 300 mg/kg, […], route gavage, dose level Middle; for KIDNEY_L / KIDNEY_R / KIDNEY_TOTAL: tissue Kidney; for LIVER: tissue Liver; for A/G / ALP / ALT / AST / BUN / CRE / Ca / Cl / DBIL / GLC / IP / K / LDH / Na / PL / RALB / TBIL / TC / TG / TP / gamma-GTP: tissue Plasma

## O=C(N[C@H](CO)[C@H](O)c1ccc([N+](=O)[O-])cc1)C(Cl)Cl [CHLORAMPHENICOL]
Tissue Blood, time 28 day
  Lym: 86.8%
  MCH: 19.7 pg
  MCHC: 34.1%
  MCV: 57.8 fL
  Mono: 1%
  Neu: 10%
  PT: 14.7 s
  Plat: 110.4 x10_4/uL
  RBC: 768.8 x10_4/ul
  Ret: 2.1%
  WBC: 69.9 x10_2/uL
Time 7 day
  KIDNEY_L: 1.2 g
  KIDNEY_R: 1.2 g
  KIDNEY_TOTAL: 2.4 g
  LIVER: 14 g
  A/G: 0.9
  ALP: 1464.2 IU/L
  ALT: 56.8 IU/L
  AST: 72.8 IU/L
  BUN: 15 mg/dL
  CRE: 0.2 mg/dL
  Ca: 11.3 mg/dL
  Cl: 106 meq/L
  DBIL: 0.02 mg/dL
  GLC: 181.2 mg/dL
  IP: 7.9 mg/dL
  K: 4 meq/L
  LDH: 58.4 IU/L
  Na: 144.8 meq/L
  PL: 148.8 mg/dL
  RALB: 2.7 g/dL
  TBIL: 0.054 mg/dL
  TC: 74 mg/dL
  TG: 102.4 mg/dL
  TP: 5.7 g/dL
  gamma-GTP: 1 IU/L
Time 14 day
  KIDNEY_L: 1.3 g
  KIDNEY_R: 1.3 g
  KIDNEY_TOTAL: 2.6 g
  LIVER: 16.9 g
  A/G: 0.8
  ALP: 1504.6 IU/L
  ALT: 51.8 IU/L
  AST: 75.2 IU/L
  BUN: 17.4 mg/dL
  CRE: 0.2 mg/dL
  Ca: 11.3 mg/dL
  Cl: 105.2 meq/L
  DBIL: 0.024 mg/dL
  GLC: 198.2 mg/dL
  IP: 7.1 mg/dL
  K: 4 meq/L
  LDH: 66.8 IU/L
  Na: 144 meq/L
  PL: 137.6 mg/dL
  RALB: 2.6 g/dL
  TBIL: 0.052 mg/dL
  TC: 63.4 mg/dL
  TG: 93.6 mg/dL
  TP: 5.8 g/dL
  gamma-GTP: 1 IU/L
Time 28 day
  KIDNEY_L: 1.6 g
  KIDNEY_R: 1.5 g
  KIDNEY_TOTAL: 3.1 g
  LIVER: 18.5 g
  A/G: 0.8
  ALP: 1176.8 IU/L
  ALT: 43 IU/L
  AST: 63.8 IU/L
  BUN: 15 mg/dL
  CRE: 0.2 mg/dL
  Ca: 10.8 mg/dL
  Cl: 105 meq/L
  DBIL: 0.024 mg/dL
  GLC: 172.8 mg/dL
  IP: 6.5 mg/dL
  K: 3.5 meq/L
  LDH: 49.2 IU/L
  Na: 144.6 meq/L
  PL: 141 mg/dL
  RALB: 2.8 g/dL
  TBIL: 0.064 mg/dL
  TC: 68 mg/dL
  TG: 69.4 mg/dL
  TP: 6.1 g/dL
  gamma-GTP: 1.2 IU/L
